Measured values from PMC10302753, “Natural-Product-Inspired Microwave-Assisted Synthesis of Novel Spirooxindoles as Antileishmanial Agents: Synthesis, Stereochemical Assignment, Bioevaluation, SAR, and Molecular Docking Studies” (Molecules, 2023).
Entries after “also recorded” stand apart in the source; their conditions may differ. Read-outs that look alike come from different tables or passages of the source.

How the values were obtained:
[1] = biological target: Leishmania DNA topoisomerase type IB (purified recombinant LTopIB) (Leishmania donovani, UniProt A0A3Q8IHS4+Q8WQM6); test: Plasmid relaxation assay (relaxation of supercoiled plasmid DNA); type: biochemical; settings: for LTopIB inhibition, result in words: recombinant enzyme in vitro, initial test at 100 µM, then dose/response
Sequence of Leishmania DNA topoisomerase type IB (purified recombinant LTopIB) (Q8WQM6 entry or part of it): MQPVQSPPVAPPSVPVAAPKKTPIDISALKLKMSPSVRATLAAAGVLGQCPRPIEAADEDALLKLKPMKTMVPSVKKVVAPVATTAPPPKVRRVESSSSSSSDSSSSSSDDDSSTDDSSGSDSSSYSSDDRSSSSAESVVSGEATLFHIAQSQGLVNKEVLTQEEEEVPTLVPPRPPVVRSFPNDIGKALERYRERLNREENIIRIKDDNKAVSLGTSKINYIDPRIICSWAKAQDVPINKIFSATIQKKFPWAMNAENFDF
Sequence of Leishmania DNA topoisomerase type IB (purified recombinant LTopIB) (A0A3Q8IHS4 entry or part of it): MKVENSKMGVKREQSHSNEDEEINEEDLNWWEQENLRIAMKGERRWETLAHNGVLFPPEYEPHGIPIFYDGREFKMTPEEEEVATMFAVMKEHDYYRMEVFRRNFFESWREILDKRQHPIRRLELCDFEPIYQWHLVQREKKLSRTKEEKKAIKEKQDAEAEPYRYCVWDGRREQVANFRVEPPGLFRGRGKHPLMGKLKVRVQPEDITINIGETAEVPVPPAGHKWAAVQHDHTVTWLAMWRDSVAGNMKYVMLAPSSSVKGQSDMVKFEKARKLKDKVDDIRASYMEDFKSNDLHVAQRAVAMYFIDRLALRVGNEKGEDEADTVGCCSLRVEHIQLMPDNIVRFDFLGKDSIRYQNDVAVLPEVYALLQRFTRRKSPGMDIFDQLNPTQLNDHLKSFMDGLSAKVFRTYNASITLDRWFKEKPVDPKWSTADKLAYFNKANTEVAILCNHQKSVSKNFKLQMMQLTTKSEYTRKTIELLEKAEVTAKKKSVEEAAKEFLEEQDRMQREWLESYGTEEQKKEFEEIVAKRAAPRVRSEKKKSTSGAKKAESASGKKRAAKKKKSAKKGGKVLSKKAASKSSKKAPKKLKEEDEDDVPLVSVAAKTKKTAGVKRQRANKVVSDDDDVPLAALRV
Method: The relaxation of supercoiled plasmid DNA is the method used for the determination of LTopIB activity. Various doses of each compound were treated with one unit of pure LTopIB (the enzyme to relax 0.5 µg of supercoiled DNA for 30 min at 37 °C) for 20 min at 4 °C. The reaction mixture, including 0.5 μg of supercoiled pBluescript SK(−) plasmid, 10 mM Tris-HCl buffer pH 7.5, 5 mM MgCl2, 0.1 mM EDTA, 15 µg/mL of bovine serum albumin, and 150 mM KCl, was then added in a final volume of 20 μL. After 30 min at 37 °C, the reaction mixtures were stopped by adding 4 μL of loading buffer, which included 5% sarkosyl, 0.12% bromophenol blue, and 25% glycerol. By electrophoresis, the topoisomers were separated on 1% agarose gels and electrophoresed at 2 V/cm for 16 h in a 0.1 M Tris-borate-EDTA buffer (pH 8.0) after being stained with ethidium bromide (0.5 µg/mL). Plotting the percentage of supercoiled DNA versus drug concentrations allowed researchers to determine the 50% inhibition concentration (IC50) values of LTopIB inhibition as the 50% reduction of supercoiled DNA [72].
Because of the presence of spirooxindole systems in the structure of these compounds, we aimed to assess their inhibitory potential on purified recombinant LTopIB measuring the relaxation of supercoiled plasmid DNA. In this regard, all spirooxindole derivatives were assessed for LTopIB inhibition through the prevention of DNA relaxation in a circular DNA plasmid. […] After this initial test, potential inhibitor dose/response curves were performed to obtain their IC50 values. […]
The relaxation of supercoiled plasmid DNA is the method used for the determination of LTopIB activity.
Various doses of each compound were treated with one unit of pure LTopIB (the enzyme to relax 0.5 µg of supercoiled DNA for 30 min at 37 °C) for 20 min at 4 °C. The reaction mixture including 0.5 μg of supercoiled pBluescript SK(−) plasmid, 10 mM Tris-HCl buffer pH 7.5, 5 mM MgCl2, 0.1 mM EDTA, 15 µg/mL bovine serum albumin, and 150 mM KCl was then added in a final volume of 20 μL. After 30 minutes at 37 °C, the reaction mixtures were stopped by adding 4 μL of loading buffer, which included 5% sarkosyl, 0.12% bromophenol blue, and 25% glycerol. By electrophoresis, the topoisomers were separated in 1% agarose gels were electrophoresed at 2 V/cm for 16 hours in a 0.1 M Tris-borate-EDTA buffer (pH 8.0) after being stained with ethidium bromide (0.5 µg/mL). Plotting the percentage of supercoiled DNA versus drug concentrations allowed researchers to determine the 50% inhibition concentration (IC50) values of LTopIB inhibition as the 50% reduction of supercoiled DNA. […]

[2] = test system: promastigotes of Leishmania donovani (MHOM/IN/1983/AG83); test: In vitro antileishmanial activity, Trypan blue dye exclusion method; type: cell-based; settings: 72 h, L. donovani promastigotes, 22 ± 1 °C, 50% growth inhibition, read-out: IC50 Using Trypan Blue Dye Exclusion Method
Method: The compounds (23a–f, 24a–f, and 25a–g) were initially screened for their in vitro antileishmanial activity against promastigotes of Leishmania donovani (MHOM/IN/1983/AG83) utilizing the Trypan blue dye exclusion method and the plasmid relaxation assay using amphotericin B and camphothesin as standard reference drugs, respectively.
The promastigotes were harvested from the culture vials, counted, and 2 × 10^6 cells/well were seeded in a 48-well culture plate. The antileishmanial screening of all the derivatives, 23a–f, 24a–f, and 25a–g, as well as the positive control, was performed at various concentrations (2 μg/mL, 4 μg/mL, 8 μg/mL, and 16 μg/mL) added in triplicate. The plate was incubated at 22 ± 1 °C in the BOD incubator for 72 h. After 72 h, each well was counted for the number of viable parasites using the Trypan blue dye exclusion method, and the percentage growth inhibition was calculated by using the formula: Percentage viability=No. of viable cells in treated well/No. of viable cells in blank well×100 Percentage growth inhibition = 100 − percentage viability […]
The IC50 (inhibitory concentration at which 50% of the parasites were dead) value was obtained by plotting a linear dose–response curve in SPSS software (Version 23). […]
Parasite strain and culture conditions:
The SSG-sensitive Indian strain of Leishmania donovani (MHOM/IN/1983/AG83) obtained from CSIR-IICB, Kolkata, was used for the study. The promastigotes of these strains were maintained in Medium 199+10% FCS (Foetal Calf Serum) by serial sub-culturing at an ambient temperature of 22±1°C every 72 […]
In vitro antileishmanial activity
Trypan blue dye exclusion method
For carrying out the antileishmanial activity in vitro, promastigotes of Leishmania donovani were used.
The promastigotes were harvested from the culture vials, counted, and 2 × 10^6 cells/well were seeded in a 48-well culture plate. Further, compounds at various concentrations (2 μg/mL, 4 μg/mL, 8 μg/mL and 16 μg/mL) were added in triplets. No drug was added to the well serving as a blank, and amphotericin B was added to the well serving as the positive control. The plate was incubated at 22 ± 1°C in the BOD incubator for 72 hours. After 72 hours, each well was counted for the number of viable parasites using the trypan blue dye exclusion method, and the percentage growth inhibition was calculated by using the formula:
Percentage growth inhibition = 100 – percentage viability
IC50 (inhibitory concentration at which 50% of the parasites were dead) was obtained by plotting a linear dose-response curve in SPSS software (Version 23). […]
8.0) after being stained with ethidium bromide (0.5 µg/mL). Plotting the percentage of supercoiled DNA versus drug concentrations allowed researchers to determine the 50% inhibition concentration (IC50) values of LTopIB inhibition as the 50% reduction of supercoiled DNA.
Characterization data of spirooxindole derivatives (23a-f, 24a-f, 25a-g).
(1'S,2'R,3S,7a'S)-1'-(4-chlorophenyl)-2'-(4-fluorobenzoyl)-5-methyl-1',2',5',6',7',7a'-hexahydrospiro [indoline-3,3'-pyrrolizin]-2-one (23a): The product was synthesized utilizing the microwave-irradiated approach, and purified by column chromatography over silica gel using hexane/EtOAc (8:2) as an eluent; Physical Appearance: light yellow solid; Yield: 98%; Rf (EtOAc/hexane: 1:1) = 0.48; m.p. 182-184 °C; […]
(1'S,2'R,3S,7a'S)-5-fluoro-2'-(4-fluorobenzoyl)-1'-(4-methoxyphenyl)-1',2',5',6',7',7a'-hexahydro spiro[indoline-3,3'-pyrrolizin]-2-one (23b): The product was synthesized utilizing the microwave-irradiated approach, and purified by column chromatography over silica gel using hexane/EtOAc (7:3) as an eluent; Physical Appearance: light yellow solid; Yield: 66%; Rf (EtOAc/hexane: 1:1) = 0.45; m.p. 161-

[3] = LTopIB inhibition, 50% reduction of supercoiled DNA, read-out: IC50 Using Plasmid Relaxation Assay

Row | IC50 [1, 3] [µM] | melting point [°C] | SMILES | IC50 ([2]; Leishmania donovani) [µM] | IC50 [2] [µM] | LTopIB inhibition, result in words [1] | IC50 [1] [µM]
1 | 17.3 |  | COc1ccc2c(c1)[C@]1(N[C@@H](Cc3ccccc3)[C@H](c3ccc(Cl)cc3)[C@H]1C(=O)c1ccc([N+](=O)[O-])cc1)C(=O)N2 [24a] | 2.43 |  | showed potential results; also recorded: potent LTopIB inhibitors; also recorded: able to inhibit the recombinant enzyme in vitro | 
2 | 37.6 | 121 to 122 | Cc1ccc(C(=O)[C@@H]2[C@@H](c3ccc(Br)cc3)[C@H](Cc3ccccc3)N[C@@]23C(=O)Nc2ccc([N+](=O)[O-])cc23)cc1 [24b] | ≤ 10 | 5.36 |  | 
3 | > 100 | 135 to 137 | Cc1ccc2c(c1)[C@]1(N[C@@H](Cc3ccccc3)[C@H](c3ccc(Cl)cc3)[C@H]1C(=O)c1ccc([N+](=O)[O-])cc1)C(=O)N2 [24c] | > 20 |  |  | 
4 | > 100 | 104 to 106 | O=C(c1ccc(F)cc1)[C@@H]1[C@@H](c2ccc(Cl)cc2)[C@H](Cc2ccccc2)N[C@@]12C(=O)Nc1ccccc12 [24d] | > 20 |  |  | 
5 | 15.7 |  | O=C(c1ccc([N+](=O)[O-])cc1)[C@@H]1[C@@H](c2ccc(Cl)cc2)[C@H](Cc2ccccc2)N[C@@]12C(=O)Nc1c(Br)cccc12 [24e] | 0.96 |  | showed potential results; also recorded: potent LTopIB inhibitors; also recorded: able to inhibit the recombinant enzyme in vitro | 
6 | 19.6 |  | Cc1ccc(C(=O)C2C(c3ccc(Br)cc3)C(Cc3ccccc3)NC23C(=O)Nc2ccc(I)cc23)cc1 (stereo not shown) [24f] | 1.62 |  | showed potential results; also recorded: potent LTopIB inhibitors; also recorded: able to inhibit the recombinant enzyme in vitro | 
7 |  | 154 to 156 | COc1ccc(C2C(Cc3cc4ccccc4[nH]3)NC3(C(=O)Nc4ccc(Br)cc43)C2C(=O)c2ccc(F)cc2)cc1 (stereo not shown) [25a] |  |  |  | 
8 | 89.1 | 118 to 120 | COc1ccc([C@H]2[C@H](Cc3cc4ccccc4[nH]3)N[C@@]3(C(=O)Nc4ccccc43)[C@@H]2C(=O)c2ccc(Br)cc2)cc1 [25b] | > 10 |  |  | 
9 |  | 138 to 140 | O=C(c1ccc(F)cc1)C1C(c2ccc(Cl)cc2)C(Cc2cc3ccccc3[nH]2)NC12C(=O)Nc1ccc(Br)cc12 (stereo not shown) [25c] |  |  |  | 
10 | 27.2 |  | COc1ccc(C2C(Cc3c[nH]c4ccccc34)NC3(C(=O)Nc4ccc(F)cc43)C2C(=O)c2ccc(C3CCCCC3)cc2)cc1 (stereo not shown) [25d] | 3.55 |  | showed potential results; also recorded: potent LTopIB inhibitors; also recorded: able to inhibit the recombinant enzyme in vitro | 
11 |  | 103 to 105 | COc1ccc(C2C(Cc3cc4ccccc4[nH]3)NC3(C(=O)Nc4ccc(C)cc43)C2C(=O)c2ccc(F)cc2)cc1 (stereo not shown) [25e] |  |  |  | 
12 |  | 172 to 174 | O=C(c1ccc(F)cc1)C1C(c2ccc(Cl)cc2)C(Cc2cc3ccccc3[nH]2)NC12C(=O)Nc1ccc([N+](=O)[O-])cc12 (stereo not shown) [25f] |  |  |  | 
13 |  | 142 to 145 | COc1ccc2c(c1)C1(NC(Cc3cc4ccccc4[nH]3)C(c3ccc(Cl)cc3)C1C(=O)c1ccc(F)cc1)C(=O)N2 (stereo not shown) [25g] |  |  |  | 
14 |  |  | C[C@@H]1[C@H](O)[C@@H](C)/C=C/C=C/C=C/C=C/C=C/C=C/C=C/[C@H](O[C@@H]2O[C@H](C)[C@@H](O)[C@H](N)[C@@H]2O)C[C@@H]2O[C@](O)(C[C@@H](O)C[C@@H](O)[C@H](O)CC[C@@H](O)C[C@@H](O)CC(=O)O[C@H]1C)C[C@H](O)[C@H]2C(=O)O [Amphotericin B, reference compound] | 0.06 |  |  | 
15 |  |  | CC[C@@]1(O)C(=O)OCc2c1cc1n(c2=O)Cc2cc3ccccc3nc2-1 [Camptothecin, reference compound] |  |  |  | 3
16 |  | 172 to 174 | CN(C)c1ccc(/C=N/N2C(=O)C(C#N)=CC23c2ccccc2NC2C=CC=CC23)cc1 (stereo not shown) [compound 18] |  |  |  | 

Row | SMILES | IC50 [1, 3] [µM] | melting point [°C] | IC50 ([2]; Leishmania donovani) [µM] | IC50 [2] [µM] | LTopIB inhibition, result in words [1] | IC50 [1] [µM]
17 | COc1ccc([C@@H]2[C@@H](C(=O)c3ccc(F)cc3)[C@]3(C(=O)Nc4ccc(F)cc43)N3CCC[C@@H]23)cc1 [23b, (1'S,2'R,3S,7a'S)-5-fluoro-2'-(4-fluorobenzoyl)-1'-(4-methoxyphenyl)-1',2',5',6',7',7a'-hexahydrospiro[indoline-3,3'-pyrrolizin]-2-one] | > 100 | 161 to 163 | > 20 |  |  | 
18 | COc1ccc(C2C3CCCN3C3(C(=O)Nc4ccc(F)cc43)C2C(=O)c2ccc(Br)cc2)cc1 (stereo not shown) [23c] | > 100 | 126 to 128 | > 20 |  |  | 
19 | COc1ccc(C2C3CCCN3C3(C(=O)Nc4ccc(OC)cc43)C2C(=O)c2ccc(Br)cc2)cc1 (stereo not shown) [23d] | 53.6 | 107 to 109 | ≤ 10 | 7.78 |  | 
20 | COc1ccc(C2C3CCCN3C3(C(=O)Nc4ccc([N+](=O)[O-])cc43)C2C(=O)c2ccc(Br)cc2)cc1 (stereo not shown) [23e] | > 100 | 111 to 113 | > 20 |  |  | 
21 | O=C(c1ccccc1)[C@@H]1[C@@H](c2ccccc2)[C@@H]2CCCN2[C@@]12C(=O)Nc1ccc(Br)cc12 [23f, (1′S,2′R,3S,7a’S)-2′-benzoyl-5-bromo-1′-phenyl-1′,2′,5′,6′,7′,7a’-hexahydrospiro[indolin-3,3′-pyrrolizin]-2-one] | > 100 | 175 to 177 | > 20 |  |  | 
